Experimental findings from patent US20020146823A1, “Method for promoting hematopoietic and mesenchymal cell proliferation and differentiation” (The University of Southern California, priority 1997, published 2002) are described below.

For experiment [1], the system named is human peripheral blood mononuclear cells (PBMC). The experiment can be described thus: Respiratory burst (hydrogen peroxide generation) in human PBMC. It counts as cell-based. The settings on record: alone and in response to PMA; 4 hours exposure; five donors. The procedure:
The respiratory burst of leukocytes (macrophages and polymorphonuclear neutrophils) is one component of the mediator system used to kill bacteria. As with phagocytosis, the level of this respiratory burst activity in resident macrophages is low. […] Studies were conducted to assess the effect of in vitro exposure of murine or rat peritoneal macrophages and human peripheral blood mononuclear cells (PBMC) to various concentrations of AII on the capacity to generate hydrogen peroxide via the respiratory burst system. For the human studies, five different donors were examined.
The murine or rat peritoneal cells were harvested by lavage with 5-15 ml of cold PBS with 0.5% bovine serum albumin. The human PBMC were harvested by venipuncture from normal human volunteers and isolated from peripheral blood by Ficoll Hypaque density centrifugation. After isolation, the cells were resuspended at 1×10^6 cells/ml and placed at 100 μl per well into 96 well plates. The cells were incubated with various concentrations of AII or AII analogues and fragments for 4 hours at 37° C. The cells were then preloaded with a fluorescent probe for hydrogen peroxide, 2,7 dichlorofluorescein acetate, which is nonfluorescent in the absence of hydrogen peroxide. Fifteen minutes later, 10 ng/ml of phorbol myristate acetate (+PMA) or PBS (−PMA) was added to stimulate the production of hydrogen peroxide. One hour after stimulation the level of fluorescence produced was measured on a Cytofluor 2350 multiwell fluorometer.

In experiment [2] the test system is enriched HPC from C57B1/6 mice. The experiment can be described thus: Murine HPC colony formation in semi-solid culture. It is filed as cell-based. As for the experimental part: HPC were harvested from C57B1/6 mice by immunomagnetic affinity chromatography and placed in semi-solid cultures with optimal growth medium. At various times after initiation of culture, the formation of colonies and the size of the colonies (number of cells/colony) were assessed microscopically.
Female C57B1/6 mice were purchased from Simonson and used as a source of bone marrow cells in this study. The bone marrow was harvested, either from untreated mice or from mice injected with 5-fluorouracil (5-FU) (3 mg/mouse; approximately 150 mg/kg) in the tail vein 48 hours before harvest, from the femur and tibia of mice by flushing with phosphate buffered saline (PBS), pH 7.4, containing 2% fetal bovine serum (FBS) with a 21-gauge needle. The eluant from the flushing was centrifuged and the pellet was resuspended at 4×10^7 nucleated cells/ml in PBS containing PBS containing 2% FBS and 5% normal rat serum.
The reagents for immunomagnetic labeling were purchased from Stem Cell Technologies, Inc. (Vancouver, BC). […]

A further experiment relates to rat bone marrow MSC. In words: Alkaline phosphatase expression by MSC in osteogenic medium. It counts as cell-based, Sprague Dawley rats. The settings on record: osteogenic medium 4 days. As for the experimental part: Bone marrow from female Sprague Dawley rats were harvested by flushing the femur with medium. The cells were placed in culture dishes […], allowed to adhere overnight, and then placed in DMEM-LG medium containing antibiotics and 10% fetal calf serum together with varying concentrations of AII. At various times after culture initiation, the cells were washed with Tyrode's buffer and placed in osteogenic medium (DMEM-LG containing 10% fetal calf serum, 100 nM dexamethasone and 0.05 mM ascorbic acid) for 4 days prior to assessment of the level of alkaline phosphatase activity per well. Briefly, the wells were washed with Tyrode's buffer and 1 ml alkaline phosphatase substrate solution (50 mM glycine, pH 10.5, containing 1 mM magnesium chloride and 2.5 mM p-nitrophenyl phosphate) to each well. Fifteen minutes after addition of this aqueous substrate, the buffer was removed from the culture and mixed with 1 ml of 1N sodium hydroxide to stop the reaction. The absorbance of the resultant mixture at […] was then determined via spectroscopy. The level of alkaline phosphatase activity is expressed as the level of absorbance per culture dish.

As to “Asp-Arg-Val-Tyr-Ile-His-Pro-Phe (DRVYIHPF; printed: Asp-Arg-Val-Tyr-Ile-His-Pro-Phe) [AII, octapeptide present in humans and other species; known pressor agent, commercially available]”, in experiment [1], the “ability of leukocytes to generate hydrogen peroxide” value was “increased the ability of leukocytes to generate hydrogen peroxide both alone and in response to stimulation with PMA”. Besides, in experiment [2] (0 to 100 μg/ml, normal and 5-FU treated), the HPC colony size result was “increases proportionately with exposure to increased concentrations of AII”. The macroscopic colonies in experiment [2] (day 14, enriched HPC from untreated (normal) mice, 100 μg/ml) was determined as 100. In the experiment on rat bone marrow MSC, the “proliferation of cells that express alkaline phosphatase” value is recorded as “can accelerate the proliferation of cells that express alkaline phosphatase”.
